Test results: PMC12720098, “Prolintane analogs as hybrid monoamine transporter ligands: Structural determinants and species differences” (The Journal of Biological Chemistry, 2025)

Columns and labels:
hNET = biological target: T1, hNET (Homo sapiens, UniProt P23975); assay: Uptake inhibition assay ([3H]MPP+) in transfected HEK293 cells; type: cell-based
T1 construct: expressed in transfected cells
Method: HEK293 cells stably expressing human monoamine transporters hSERT, hDAT or hNET were seeded into poly-D-lysine (PDL) coated 96-well plates with a density of approximately 36,000 cells per well 1 day prior to experiments. A day after seeding, the cell medium was replaced with 200 μl Krebs-HEPES-buffer (KHB; 120 mM NaCl, 3 mM KCl, 2 mM CaCl2·2H2O, 2 mM MgCl2·6H2O, 20 mM D-glucose, pH = 7.3). The test drugs were initially dissolved in Milli-Q H2O or dimethyl sulfoxide (DMSO) at a concentration of 10 to 100 mM. Then, cells were treated with the respective concentration of the test drug diluted in KHB for 5 min as a pre-incubation step. Subsequently, in the uptake step, the solution was replaced with 50 μl/well diluted drug solution and tritiated substrate (hDAT: 0.1 μM [^3H]DA; hNET: 0.02 μM [^3H]MPP^+; hSERT: 0.1 μM [^3H]5-HT) for 1 min (hDAT, hSERT) or 3 min (hNET). After incubation, cells were immediately washed with 200 μl KHB to stop uptake. Uptake was indirectly measured by quantifying beta emission with liquid scintillation counting (Wallac 1450 MicroBeta TriLux Liquid Scintillation Counter & Lumi; GMI). Therefore, 200 μl Ultima Gold XR scintillation cocktail (PerkinElmer, MA, USA) was added to each well.
Half-maximal inhibitory concentrations (IC50) were obtained from fitting a sigmoidal dose–response ( Y=Bottom+Top−Bottom/1+10^((LogIC50−X)·HillSlope) ) in GraphPad Prism 10.3.1 (GraphPad Software Inc.). Uptake inhibition data were evaluated by one-way ANOVA followed by Tukey's multiple comparisons test. Release data were analyzed using a two-way ANOVA (batch release) or a mixed-effects model with Geisser-Greenhouse correction (time-dependent traces) employing Šidák correction for comparing differences between compounds with or without the addition of monensin.

rDAT = biological target: T2, rDAT (Rattus norvegicus, UniProt P23977); assay: Uptake inhibition assay ([3H]dopamine) in rat brain synaptosomes; type: biochemical; details: for DAT/SERT ratio: rat isoform (r), 1/DAT IC50 / 1/SERT IC50
T2 construct: As a means to evaluate transporter activity of prolintane analogs in native tissue preparation; from tissue; host or cells: rat caudate synaptosomes
T2 sequence (P23977 whole entry, canonical isoform): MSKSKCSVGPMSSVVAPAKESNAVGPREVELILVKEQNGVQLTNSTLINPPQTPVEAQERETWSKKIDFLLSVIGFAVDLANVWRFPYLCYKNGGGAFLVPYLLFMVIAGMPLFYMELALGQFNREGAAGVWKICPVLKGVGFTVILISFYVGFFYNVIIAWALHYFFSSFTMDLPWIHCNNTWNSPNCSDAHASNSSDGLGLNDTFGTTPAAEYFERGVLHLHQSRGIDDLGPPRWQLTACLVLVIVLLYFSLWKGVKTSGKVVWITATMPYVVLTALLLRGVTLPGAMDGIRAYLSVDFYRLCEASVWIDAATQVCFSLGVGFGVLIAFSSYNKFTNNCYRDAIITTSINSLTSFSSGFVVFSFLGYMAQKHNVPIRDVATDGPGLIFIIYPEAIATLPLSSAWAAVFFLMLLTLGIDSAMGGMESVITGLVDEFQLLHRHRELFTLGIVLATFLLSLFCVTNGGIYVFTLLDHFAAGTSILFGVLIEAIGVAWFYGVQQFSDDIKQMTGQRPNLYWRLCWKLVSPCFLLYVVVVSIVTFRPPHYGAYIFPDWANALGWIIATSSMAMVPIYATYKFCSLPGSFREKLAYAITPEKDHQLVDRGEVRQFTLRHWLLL
Method: (§1) Rats were killed by CO2 narcosis and decapitated, then synaptosomes were prepared from brains using standard procedures. In brief, synaptosomes were prepared from caudate tissue for rat DAT (rDAT) assays, or from whole brain minus caudate and cerebellum for rat NET (rNET) and rat SERT (rSERT) assays. Brain tissue was homogenized in ice-cold 10% sucrose followed by centrifugation at 1000g for 10 min. The resulting supernatant containing crude synaptosomes was kept on ice until use in uptake or release procedures. Uptake inhibition and release assays were carried out as previously described ([62], [63]).
(§2) For uptake inhibition assays, 5 nM [^3H]dopamine, 10 nM [^3H]norepinephrine, or 5 nM [^3H]5-HT was used as the radiolabeled transmitter for rDAT, rNET, or rSERT, respectively. To optimize uptake for a single transporter, unlabeled blockers were included that prevented uptake of [^3H]transmitter by competing transporters: 50 nM GBR 12935 was added to NET and SERT assays to block DAT, 100 nM nomifensine was added to SERT assays to block NET. Uptake assays were initiated by adding 100 μl of tissue to 900 μl Krebs-phosphate buffer (126 mM NaCl, 2.4 mM KCl, 0.83 mM CaCl2, 0.8 mM MgCl2, 0.5 mM KH2PO4, 0.5 mM Na2SO4, 11.1 mM glucose, 0.05 mM pargyline, 1 mg/ml bovine serum albumin, and 1 mg/ml ascorbic acid, pH 7.4) containing test drug and [^3H]transmitter. Uptake assays were terminated by rapid vacuum filtration, and retained radioactivity was quantified with liquid scintillation counting.
(§3) Effects of test drugs on release and uptake inhibition were analyzed by nonlinear regression using GraphPad Prism 9 (GraphPad Scientific, San Diego, CA, USA). Concentration–response values for the uptake inhibition and release were fit to the equation, Y(x)=Ymin+Ymax−Ymin/1+10^((LogP50−LogX)·n) , where x is the concentration of the compound tested, Y(x) is the response measured, Ymax is the maximal response, P50 is either IC50 (the concentration that yields half-maximal uptake inhibition response) or EC50 (the concentration that yields half-maximal release response), and n is the Hill slope parameter.

hSERT = biological target: T3, hSERT (Homo sapiens, UniProt P31645); type: cell-based; details: for Mean of normalized currents elicited through hSERT by drug application: normalized to 10 µM 5-HT current
T3 construct: expressed in transfected cells
T3 sequence (P31645 whole entry): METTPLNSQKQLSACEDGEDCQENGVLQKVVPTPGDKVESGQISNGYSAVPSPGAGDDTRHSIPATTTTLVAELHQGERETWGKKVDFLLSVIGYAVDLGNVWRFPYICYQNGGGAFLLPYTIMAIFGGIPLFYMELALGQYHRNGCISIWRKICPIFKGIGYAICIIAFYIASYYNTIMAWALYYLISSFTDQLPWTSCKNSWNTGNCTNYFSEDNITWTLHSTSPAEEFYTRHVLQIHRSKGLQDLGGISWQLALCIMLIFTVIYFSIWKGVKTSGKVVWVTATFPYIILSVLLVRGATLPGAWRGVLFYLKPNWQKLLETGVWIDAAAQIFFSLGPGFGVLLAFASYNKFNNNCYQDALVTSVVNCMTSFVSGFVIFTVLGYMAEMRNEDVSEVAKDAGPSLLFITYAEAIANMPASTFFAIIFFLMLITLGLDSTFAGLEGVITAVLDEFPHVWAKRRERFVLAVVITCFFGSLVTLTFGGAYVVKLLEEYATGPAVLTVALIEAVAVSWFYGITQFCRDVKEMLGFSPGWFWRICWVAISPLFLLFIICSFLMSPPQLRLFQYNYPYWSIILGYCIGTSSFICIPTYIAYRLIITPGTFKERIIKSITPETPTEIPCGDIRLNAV
Method: One day prior to recording, either native HEK293 cells or HEK293 cells stably expressing monoamine transporters were seeded at low density onto PDL-coated 35 mm dishes. Patch-clamp experiments were conducted at a holding potential of −60 mV, with substrate-induced currents recorded at room temperature (20–24 °C) using an […] amplifier and pClamp 11.2 software (MDS Analytical Technologies). During recordings, cells were continuously superfused via a DAD-12 perfusion system and an 8-tube manifold (ALA Scientific Instruments), delivering an external solution composed of 140 mM NaCl, 2.5 mM CaCl2, 3 mM KCl, 2 mM MgCl2, 20 mM glucose, and 10 mM HEPES, with pH adjusted to 7.3 using NaOH. The intracellular pipette solution, designed to mimic physiological ionic conditions, contained 133 mM potassium gluconate, 5.9 mM NaCl, 1 mM CaCl2, 0.7 mM MgCl2, 10 mM HEPES, and 10 mM EGTA, with pH set to 7.2 using KOH. Currents were filtered at 1 kHz and digitized at 10 kHz via a Digidata 1550 digitizer (MDS Analytical Technologies), followed by analysis in Clampfit 10.2 (Molecular Devices). Substance-induced currents were normalized to the current elicited by a saturating concentration of 5-HT (10 μM) of the same cell. Holding currents were subtracted, and a 50 Hz digital Gaussian low-pass filter was applied to the traces for further analysis.

rNET = biological target: T4, rNET (Rattus norvegicus, UniProt Q63380); assay: Uptake inhibition assay ([3H]norepinephrine) in rat brain synaptosomes; type: biochemical
T4 construct: As a means to evaluate transporter activity of prolintane analogs in native tissue preparation; from tissue; host or cells: rat brain synaptosomes (whole brain minus caudate and cerebellum)
T4 sequence (Q63380 1-617): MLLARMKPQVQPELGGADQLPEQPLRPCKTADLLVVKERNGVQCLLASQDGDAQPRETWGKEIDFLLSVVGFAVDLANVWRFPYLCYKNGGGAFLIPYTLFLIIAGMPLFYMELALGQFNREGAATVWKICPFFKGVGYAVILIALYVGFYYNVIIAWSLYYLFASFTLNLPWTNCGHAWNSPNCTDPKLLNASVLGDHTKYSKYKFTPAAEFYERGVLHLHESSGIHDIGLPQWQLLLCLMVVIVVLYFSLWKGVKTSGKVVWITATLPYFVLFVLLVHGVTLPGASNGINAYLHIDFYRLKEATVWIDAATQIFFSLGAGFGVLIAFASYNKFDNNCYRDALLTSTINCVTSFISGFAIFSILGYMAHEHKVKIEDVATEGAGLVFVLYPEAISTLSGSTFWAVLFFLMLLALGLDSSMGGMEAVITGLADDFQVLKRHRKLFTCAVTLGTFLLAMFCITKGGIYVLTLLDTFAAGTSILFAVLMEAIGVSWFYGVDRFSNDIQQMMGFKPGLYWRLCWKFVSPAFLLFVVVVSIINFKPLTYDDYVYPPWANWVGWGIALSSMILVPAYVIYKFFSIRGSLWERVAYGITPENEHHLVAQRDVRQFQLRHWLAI
Method: as §1, §2, §3

T1 sequence (P23975 whole entry): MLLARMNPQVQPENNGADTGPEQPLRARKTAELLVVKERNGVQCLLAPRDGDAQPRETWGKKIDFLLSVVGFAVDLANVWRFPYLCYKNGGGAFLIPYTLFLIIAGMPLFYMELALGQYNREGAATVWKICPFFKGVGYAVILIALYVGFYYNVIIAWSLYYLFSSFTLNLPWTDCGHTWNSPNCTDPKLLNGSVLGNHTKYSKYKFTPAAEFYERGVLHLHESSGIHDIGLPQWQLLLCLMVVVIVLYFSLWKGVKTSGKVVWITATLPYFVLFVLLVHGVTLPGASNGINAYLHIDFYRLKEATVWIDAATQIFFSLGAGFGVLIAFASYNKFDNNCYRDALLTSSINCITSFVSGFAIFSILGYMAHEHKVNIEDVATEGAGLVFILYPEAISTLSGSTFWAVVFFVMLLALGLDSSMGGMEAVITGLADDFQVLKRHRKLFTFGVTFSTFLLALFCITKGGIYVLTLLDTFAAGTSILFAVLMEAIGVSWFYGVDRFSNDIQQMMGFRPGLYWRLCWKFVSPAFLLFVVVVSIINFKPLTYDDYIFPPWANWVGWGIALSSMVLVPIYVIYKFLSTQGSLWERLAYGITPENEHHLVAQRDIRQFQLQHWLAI

Structure (SMILES)	IC50 (hNET) [nM]	IC50 (rDAT) [nM]	DAT/SERT ratio (rDAT)	Mean of normalized currents elicited through hSERT by drug application (hSERT)	IC50 (rNET) [nM]	hSERT-mediated current (hSERT; prolintane 30 µM, after 5-HT washout (Fig. S2))
CCCC(Cc1cccc(F)c1)N1CCCC1 (stereo not drawn) [3-Fluoroprolintane, 1-[1-(3-fluorophenyl)pentan-2-yl]pyrrolidine]	35 ± 11	58 ± 4	9	0.306	28 ± 3	
CCCC(Cc1ccccc1C)N1CCCC1 (stereo not drawn) [2-Methylprolintane, 1-[1-(2-methylphenyl)pentan-2-yl]pyrrolidine]	119 ± 49	324 ± 25	1	0.386	138 ± 13	
CCCC(Cc1cccc(C)c1)N1CCCC1 (stereo not drawn) [3-Methylprolintane, 1-[1-(3-methylphenyl)pentan-2-yl]pyrrolidine]	139 ± 33	111 ± 8	1.25	0.354	62 ± 9	
CCCC(Cc1ccccc1F)N1CCCC1 (stereo not drawn) [2-Fluoroprolintane, 1-[1-(2-fluorophenyl)pentan-2-yl]pyrrolidine]	102 ± 22	117 ± 10	19	0.28	63 ± 6	
CCCC(Cc1ccc(F)cc1)N1CCCC1 (stereo not drawn) [4-Fluoroprolintane, 1-[1-(4-fluorophenyl)pentan-2-yl]pyrrolidine]	307 ± 97	213 ± 13	4.2	0.3167	217 ± 21	
CCCC(Cc1ccc(C)cc1)N1CCCC1 (stereo not drawn) [4-Methylprolintane, 1-[1-(4-methylphenyl)pentan-2-yl]pyrrolidine]	72 ± 14	37 ± 3	1.9	0.21	45 ± 5	
CCCC(Cc1ccccc1)N1CCCC1 (stereo not drawn) [Prolintane, 1-(1-phenylpentan-2-yl)pyrrolidine]	59 ± 7	61 ± 6	38	0.2567	39 ± 4	elicited an inward current
